In patent US9265253B2, “Use of macrocyclic picolinamides as fungicides” (DOW AGROSCIENCES LLC, priority 2013, dated 2016):

system: Mycosphaerella graminicola; Anamorph: Septoria tritici; test: Leaf Blotch of Wheat (SEPTTR) disease control; assay type: in vivo; details: Zymoseptoria tritici, 24 h, 1 Day Protectant, rate 100 ppm; read-out: SEPTTR 1 DP disease control
Method in brief: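 Preventive or curative tests: first-leaf Yuma wheat, sprayed to run-off, inoculated with S. tritici, dew chamber at 100% humidity, then greenhouse at 20° C. Severity on the first leaf is scored on a 0–100% scale and expressed as % control against untreated plants.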

Q: How did the pest or weed control at 100 ppm turn out when COc1ccnc(C(=O)N[C@H]2CCC[C@H](Cc3ccc(F)cc3)[C@@H](OCC(C)C)[C@H](C)OC2=O)c1OCOC(C)=O [Compound F102] was run?
A: 80 to 100%

same assay, conditions: Zymoseptoria tritici, 24 h, 1 Day Protectant, rate 121.5 g/H; read-out: SEPTTR 1 DP disease control

Q: With COc1ccnc(C(=O)N[C@H]2CCC[C@H](Cc3ccc(F)cc3)[C@@H](OCC(C)C)[C@H](C)OC2=O)c1OCOC(C)=O [Compound F102] as the compound, how does the pest or weed control at 121.5 g/ha read?
A: 80 to 100%

Q: Which pest or weed control at 121.5 g/ha does the source give for CCO[C@@H]1[C@@H](Cc2ccccc2)CCC[C@H](NC(=O)c2nccc(OC)c2OC(C)=O)C(=O)O[C@H]1C [Compound F87] here?
A: 80 to 100%

Q: CCCO[C@@H]1[C@@H](Cc2ccccc2)CCC[C@H](NC(=O)c2nccc(OC)c2OC(C)=O)C(=O)O[C@H]1C [Compound F88] was tested. Which pest or weed control at 121.5 g/ha did it give?
A: 80 to 100%

same assay, conditions: Zymoseptoria tritici, 24 h, Wheat Leaf Blotch; 1 Day Protectant; rate 121.5 g/H (low volume application); read-out: Disease control SEPTTR 1 DP

Q: Which pest or weed control at 121.5 g/ha does the source give for CCCO[C@@H]1[C@@H](Cc2ccccc2)CCC[C@H](NC(=O)c2nccc(OC)c2OC(=O)CCOC)C(=O)O[C@H]1C [Compound F198] here?
A: 80 to 100%

same assay, conditions: Zymoseptoria tritici, 72 h, 3 Day Curative, rate 100 ppm; read-out: SEPTTR 3 DC disease control

Q: COc1ccnc(C(=O)N[C@H]2CCC[C@H](Cc3ccc(F)cc3)[C@@H](OCC(C)C)[C@H](C)OC2=O)c1OCOC(C)=O [Compound F102] was tested. Which pest or weed control at 100 ppm did it give?
A: 80 to 100%

same assay, conditions: Zymoseptoria tritici, 72 h, 3 Day Curative, rate 121.5 g/H; read-out: SEPTTR 3 DC disease control

Q: How did the pest or weed control at 121.5 g/ha turn out when COc1ccnc(C(=O)N[C@H]2CCC[C@H](Cc3ccc(F)cc3)[C@@H](OCC(C)C)[C@H](C)OC2=O)c1OCOC(C)=O [Compound F102] was run?
A: 80 to 100%

Q: How did the pest or weed control at 121.5 g/ha turn out when CCO[C@@H]1[C@@H](Cc2ccccc2)CCC[C@H](NC(=O)c2nccc(OC)c2OC(C)=O)C(=O)O[C@H]1C [Compound F87] was run?
A: 80 to 100%

Q: For CCCO[C@@H]1[C@@H](Cc2ccccc2)CCC[C@H](NC(=O)c2nccc(OC)c2OC(C)=O)C(=O)O[C@H]1C [Compound F88], which pest or weed control at 121.5 g/ha is on record?
A: 80 to 100%

same assay, conditions: Zymoseptoria tritici, 72 h, Wheat Leaf Blotch; 3 Day Curative; rate 121.5 g/H (low volume application); read-out: Disease control SEPTTR 3 DC

Q: How did the pest or weed control at 121.5 g/ha turn out when CCCO[C@@H]1[C@@H](Cc2ccccc2)CCC[C@H](NC(=O)c2nccc(OC)c2OC(=O)CCOC)C(=O)O[C@H]1C [Compound F198] was run?
A: 80 to 100%

system: Alternaria solani; test: Tomato Early Blight (ALTESO) disease control; assay type: in vivo; details: Alternaria solani, topical, 24 h, 1 Day Protectant, read-out: Disease Control ALTESO 1 DP
Procedure: Technical grades of materials were dissolved in acetone, which were then mixed with nine volumes of water containing 110 ppm Triton X-100. The fungicide solutions were applied onto wheat seedlings using an automated booth sprayer to run-off. All sprayed plants were allowed to air dry prior to further handling. All fungicides were evaluated using the aforementioned method for their activity vs. all target diseases. Wheat leaf blotch and brown rust activity were also evaluated using track spray applications, in which case the fungicides were formulated as EC formulations, containing 0.1% Trycol 5941 in the spray solutions. Wheat plants (variety Yuma) were grown from seed in a greenhouse in 50% mineral soil/50% soil-less Metro mix until the first leaf was fully emerged, with 7-10 seedlings per pot. These plants were inoculated with an aqueous spore suspension of Septoria tritici either prior to or after fungicide treatments. After inoculation the plants were kept in 100% relative humidity (one day in a dark dew chamber followed by two to three days in a lighted dew chamber at 20° C.) to permit spores to germinate and infect the leaf. The plants were then transferred to a greenhouse set at 20° C. for disease to develop. When disease symptoms were fully expressed on the 1st leaves of untreated plants, infection levels were assessed on a scale of 0 to 100 percent disease severity. Percent disease control was calculated using the ratio of disease severity on treated plants relative to untreated plants. Tomato plants (variety Outdoor girl) were propagated in soil-less Metro mix, with each pot having one plant, and used when 12 to 14 days old. Test plants were inoculated with an aqueous spore suspension of Alternaria solani 24 hr after fungicide treatments. After inoculation the plants were kept in 100% relative humidity (one day in a dark dew chamber followed by two to three days in a lighted dew chamber at 20° C.) to permit spores to germinate and infect the leaf. The plants were then transferred to a growth room at 22° C. for disease to develop. Fungicide formulation, application and disease assessment on the sprayed leaves followed the procedures as described in the Example A.

Q: For CCCO[C@@H]1[C@@H](Cc2ccccc2)CCC[C@H](NC(=O)c2nccc(OC)c2OC(=O)CCOC)C(=O)O[C@H]1C [Compound F198], which pest or weed control at 100 ppm is on record?
A: 80 to 100%

Q: CCO[C@@H]1[C@@H](Cc2ccccc2)CCC[C@H](NC(=O)c2nccc(OC)c2OC(C)=O)C(=O)O[C@H]1C [Compound F87] was tested. Which pest or weed control at 100 ppm did it give?
A: 80 to 100%

Q: How did the pest or weed control at 100 ppm turn out when CCCO[C@@H]1[C@@H](Cc2ccccc2)CCC[C@H](NC(=O)c2nccc(OC)c2OC(C)=O)C(=O)O[C@H]1C [Compound F88] was run?
A: 80 to 100%

system: Puccinia triticina; Synonym: Puccinia recondite f. Sp. Tritici; test: Wheat Brown Rust (PUCCRT) disease control; assay type: in vivo; details: Puccinia triticina, topical, 24 h, 1 Day Protectant, rate 100 ppm; read-out: PUCCRT 1 DP disease control
Method in brief: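 Brown rust on first-leaf Yuma wheat: spore inoculation before or after spray application (acetone/Triton X-100 solution, or EC with Trycol in track spray), overnight 100% RH at 22 °C, disease developed at 24 °C. Severity scored 0–100% and converted to percent control against untreated.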

Q: With COc1ccnc(C(=O)N[C@H]2CCC[C@H](Cc3ccc(F)cc3)[C@@H](OCC(C)C)[C@H](C)OC2=O)c1OCOC(C)=O [Compound F102] as the compound, how does the pest or weed control at 100 ppm read?
A: 80 to 100%

same assay, conditions: Puccinia triticina, topical, 24 h, 1 Day Protectant, rate 121.5 g/H; read-out: PUCCRT 1 DP disease control

Q: COc1ccnc(C(=O)N[C@H]2CCC[C@H](Cc3ccc(F)cc3)[C@@H](OCC(C)C)[C@H](C)OC2=O)c1OCOC(C)=O [Compound F102] was tested. Which pest or weed control at 121.5 g/ha did it give?
A: 80 to 100%

Q: For CCO[C@@H]1[C@@H](Cc2ccccc2)CCC[C@H](NC(=O)c2nccc(OC)c2OC(C)=O)C(=O)O[C@H]1C [Compound F87], which pest or weed control at 121.5 g/ha is on record?
A: 80 to 100%

Q: How did the pest or weed control at 121.5 g/ha turn out when CCCO[C@@H]1[C@@H](Cc2ccccc2)CCC[C@H](NC(=O)c2nccc(OC)c2OC(C)=O)C(=O)O[C@H]1C [Compound F88] was run?
A: 80 to 100%

same assay, conditions: Puccinia triticina, topical, 24 h, Wheat Brown Rust; 1 Day Protectant; rate 121.5 g/H (low volume application); read-out: Disease control PUCCRT 1 DP

Q: CCCO[C@@H]1[C@@H](Cc2ccccc2)CCC[C@H](NC(=O)c2nccc(OC)c2OC(=O)CCOC)C(=O)O[C@H]1C [Compound F198] was tested. Which pest or weed control at 121.5 g/ha did it give?
A: 80 to 100%

same assay, conditions: Puccinia triticina, topical, 72 h, 3 Day Curative, rate 100 ppm; read-out: PUCCRT 3 DC disease control

Q: COc1ccnc(C(=O)N[C@H]2CCC[C@H](Cc3ccc(F)cc3)[C@@H](OCC(C)C)[C@H](C)OC2=O)c1OCOC(C)=O [Compound F102] was tested. Which pest or weed control at 100 ppm did it give?
A: 80 to 100%

same assay, conditions: Puccinia triticina, topical, 72 h, 3 Day Curative, rate 121.5 g/H; read-out: PUCCRT 3 DC disease control

Q: With COc1ccnc(C(=O)N[C@H]2CCC[C@H](Cc3ccc(F)cc3)[C@@H](OCC(C)C)[C@H](C)OC2=O)c1OCOC(C)=O [Compound F102] as the compound, how does the pest or weed control at 121.5 g/ha read?
A: 0 to 80%

Q: How did the pest or weed control at 121.5 g/ha turn out when CCO[C@@H]1[C@@H](Cc2ccccc2)CCC[C@H](NC(=O)c2nccc(OC)c2OC(C)=O)C(=O)O[C@H]1C [Compound F87] was run?
A: 80 to 100%

Q: How did the pest or weed control at 121.5 g/ha turn out when CCCO[C@@H]1[C@@H](Cc2ccccc2)CCC[C@H](NC(=O)c2nccc(OC)c2OC(C)=O)C(=O)O[C@H]1C [Compound F88] was run?
A: 80 to 100%

same assay, conditions: Puccinia triticina, topical, 72 h, Wheat Brown Rust; 3 Day Curative; rate 121.5 g/H (low volume application); read-out: Disease control PUCCRT 3 DC

Q: Which pest or weed control at 121.5 g/ha does the source give for CCCO[C@@H]1[C@@H](Cc2ccccc2)CCC[C@H](NC(=O)c2nccc(OC)c2OC(=O)CCOC)C(=O)O[C@H]1C [Compound F198] here?
A: 80 to 100%
